“And” between values parts separate entries of the source, which are not always exact repeats. Equal entries are not always repeated. Where two headings read alike, the source gives them in different places. Where only a bound is given, the exact number is not on record here.

Series [1] in a line: Repeat-dose study in diabetic ZDF rats, serum ALT and AST. The format is in vivo, rat. Particulars: 15 and 45 mg/kg/day, 42 days. From the text: Male ZDF rats (n = 8) and ZL rats (n = 8) were aged 9 weeks and were housed 2–3 per cage within a small animal facility in accordance with the guidelines approved by the Association for Assessment and Accreditation of Laboratory Animal Care. […] All animals had ad libitum access to water during the entire study period. The animals were fed a diet of Purina Rodent LabDiet 5C08, equivalent to LabDiet 5008. Treatment-grouped rats (N = 8) underwent oral gavage with the test compound or vehicle at 10 mL/kg for 6 weeks. For fasting blood levels of ALT and AST after overnight fasting, blood was collected from the jugular vein or through a cardiac puncture (on the day of euthanasia, the last day of the study). Blood was collected in AXYGEN microtubes (MCT-150-C) for clinical blood chemistry measurements. Next, the sample was allowed to clot for a minimum of 30 min at room temperature and then centrifuged at 4°C and 4000 x g for 10 min. The resultant serum was transferred into three pre-labeled AXYGEN microtubes for blood chemistry analysis using the ADVIA 2400 chemistry system. Rats were euthanized by overdose of CO2 followed by decapitation.

The nature of series [2]: Repeat-dose study in healthy Cynomolgus monkeys, safety (14 and 56 days).
Series [3] is described as follows: Metabolite profiling, rat hepatocytes. Format: in vitro ADME. Particulars: 10 μM CPL207280, 120 min, ND = not detected. As to the method:
Suspensions of cryopreserved human, rat, and monkey hepatocytes were pooled from a minimum of three individuals. All cryopreserved hepatocytes were purchased from a commercial supplier. […] The cell density was 0.5 ×10^6 viable cells/mL. The final DMSO concentration during the incubation was 0.25%. Control incubations were performed in lysed cells to reveal any non-enzymatic degradation. Two control compounds were identified in each species. Samples (50 μL) were removed from the incubation mixture at 0, 10, 20, 40, 60, and 120 min and added to methanol containing an internal standard (100 μL) to stop the reaction. The samples were centrifuged (4000 x g at 4°C for 30 min) and the supernatants at each time point were pooled for analysis by LC MS/MS using Cyprotex generic methods. Following hepatocyte stability assays, the samples were utilized for metabolite profiling. […] Metabolites were characterized using a mass spectrometer comprising Waters Xevo QT of G2-S, Acquity Binary Solvent Manager, Acquity Column Manager, and 2777 Autosampler.

Series [4] is described as follows: Stability in cryopreserved hepatocytes, rat. Format: in vitro ADME. Particulars: for Compound Remaining (% of 0 min): Hepatocyte Stability Rat, single replicates. As to the method:
(§1) The final incubation volume was 500 μL. Two control compounds (verapamil and donepezil) were included for each microsomal species, along with the appropriate vehicle control. The reactions were terminated by transferring 50 μL of incubate to 100 μL methanol containing an internal standard (metoprolol) at appropriate time points (0, 10, 20, 40, 60, and 120 min for the test compound and 0, 5, 10, 20, 40, and 60 min for the control compounds). The termination plates were centrifuged at 4000 x g at 4°C for 30 min to precipitate the protein. The supernatants were then collected for analysis, and LC-MS/MS was used for detection purposes. The system consisted of an Acquity™ Binary Solvent Manager, Acquity™ 4-position heated column manager, 2777 Ultra High Pressure Autosampler, and a Xevo-TQ MS triple quadrupole mass spectrometer (Waters Ltd., Herts, UK). This process was carried out twice.

Series [5] concerns the target T1, BSEP (Homo sapiens, UniProt O95342). In words: in vitro. Particulars: membrane vesicle preparations (BSEP).
Procedure: (§2) In the vesicular transport inhibition assay (for BSEP, MRP) compounds were incubated with membrane vesicle preparations and the probe substrate. Incubations were carried out in the presence of 4 mM ATP or AMP to distinguish between transporter-mediated uptake and passive diffusion into the vesicles. For MRP2 and MRP3, reactions were carried out in the presence of 2 mM glutathione. Compounds were added to the reaction mixture in 0.75 μL of solvent (1% of the final incubation volume). […] Reactions were initiated by the addition of 25 μL of 12 mM MgATP (or 12 mM AMP in assay buffer as a background control) and preincubated separately. Reactions were quenched by the addition of 200 μL of ice-cold washing buffer and immediate filtration via glass fiber filters mounted on a 96-well plate (filter plate). The filters were washed (5 × 200 μL of ice-cold washing buffer), dried, and the amount of substrate inside the filtered vesicles was determined by liquid scintillation counting.
Series [6] in a line: Repeat-dose study in diabetic cynomolgus monkeys, serum ALT and AST. Format: in vivo. Particulars: 2.2 and 22 mg/kg, 28 treatment days. From the text: All animals aged 8–20 years had ad libitum access to water and were fed twice daily with a complete nutritionally balanced diet (Beijing Keao Xieli Feed Co., LTD, Beijing, China) enriched with seasonal fruits. The cynomolgus monkeys used in the study were cared for and handled in accordance with all applicable Association for Assessment and Accreditation of Laboratory Animal Care regulations and guidelines. […] After each treatment (weighing, bleeding, or dosing), the animals were clinically observed on the day of the procedure and, if previously anesthetized, the animals were monitored to stand up and alert. Nine selected diabetic animals were subjected to daily test compound (powder) dosing via natural feeding with bananas (n = 3). Blood from overnight-fasted animals was collected weekly in the morning for measurement of serum ALT and AST levels on days 0, 7, 14, 21, 28, and 35. Blood samples (1.5 mL) were collected from a cephalic or saphenous vein into BD Vacutainer® and K2-EDTA tubes.

A short description of series [7]: Stability in cryopreserved hepatocytes, monkey. Format: in vitro ADME. Particulars: for Compound Remaining (% of 0 min): Hepatocyte Stability Monkey, single replicates. As for the experimental part: as §1
Series [8] in a line: Stability in cryopreserved hepatocytes, mouse. Format: in vitro ADME. Particulars: for Compound Remaining (% of 0 min): Hepatocyte Stability Mouse, single replicates. As for the experimental part: as §1
For series [9] the following is noted: summary table, literature; cited from earlier work.
For series [10] the following is noted: 600 mg/kg for 14 days; cited from earlier work.
The test system of another series is hepatocytes. Particulars: read-out: IC50, hepatocyte toxicity, cited from earlier work.
The conditions of series [11]: phase III studies, within six months; cited from earlier work.
For series [12] the following is noted: cited from earlier work.
Series [13] deals with T1, BSEP. In words: biochemical.
Procedure: as §2
Where [14] appears, read: cryopreserved hepatocytes (suspension), Rat (Sprague Dawley) hepatocytes, mean n = 2.
Setting [15] is: cryopreserved hepatocytes (suspension), Monkey (Cynomolgus) hepatocytes, mean n = 2.
The mark [16] stands for this setting: cryopreserved hepatocytes (suspension), Mouse (CD) hepatocytes, mean n = 2.

T1 sequence (O95342 whole entry): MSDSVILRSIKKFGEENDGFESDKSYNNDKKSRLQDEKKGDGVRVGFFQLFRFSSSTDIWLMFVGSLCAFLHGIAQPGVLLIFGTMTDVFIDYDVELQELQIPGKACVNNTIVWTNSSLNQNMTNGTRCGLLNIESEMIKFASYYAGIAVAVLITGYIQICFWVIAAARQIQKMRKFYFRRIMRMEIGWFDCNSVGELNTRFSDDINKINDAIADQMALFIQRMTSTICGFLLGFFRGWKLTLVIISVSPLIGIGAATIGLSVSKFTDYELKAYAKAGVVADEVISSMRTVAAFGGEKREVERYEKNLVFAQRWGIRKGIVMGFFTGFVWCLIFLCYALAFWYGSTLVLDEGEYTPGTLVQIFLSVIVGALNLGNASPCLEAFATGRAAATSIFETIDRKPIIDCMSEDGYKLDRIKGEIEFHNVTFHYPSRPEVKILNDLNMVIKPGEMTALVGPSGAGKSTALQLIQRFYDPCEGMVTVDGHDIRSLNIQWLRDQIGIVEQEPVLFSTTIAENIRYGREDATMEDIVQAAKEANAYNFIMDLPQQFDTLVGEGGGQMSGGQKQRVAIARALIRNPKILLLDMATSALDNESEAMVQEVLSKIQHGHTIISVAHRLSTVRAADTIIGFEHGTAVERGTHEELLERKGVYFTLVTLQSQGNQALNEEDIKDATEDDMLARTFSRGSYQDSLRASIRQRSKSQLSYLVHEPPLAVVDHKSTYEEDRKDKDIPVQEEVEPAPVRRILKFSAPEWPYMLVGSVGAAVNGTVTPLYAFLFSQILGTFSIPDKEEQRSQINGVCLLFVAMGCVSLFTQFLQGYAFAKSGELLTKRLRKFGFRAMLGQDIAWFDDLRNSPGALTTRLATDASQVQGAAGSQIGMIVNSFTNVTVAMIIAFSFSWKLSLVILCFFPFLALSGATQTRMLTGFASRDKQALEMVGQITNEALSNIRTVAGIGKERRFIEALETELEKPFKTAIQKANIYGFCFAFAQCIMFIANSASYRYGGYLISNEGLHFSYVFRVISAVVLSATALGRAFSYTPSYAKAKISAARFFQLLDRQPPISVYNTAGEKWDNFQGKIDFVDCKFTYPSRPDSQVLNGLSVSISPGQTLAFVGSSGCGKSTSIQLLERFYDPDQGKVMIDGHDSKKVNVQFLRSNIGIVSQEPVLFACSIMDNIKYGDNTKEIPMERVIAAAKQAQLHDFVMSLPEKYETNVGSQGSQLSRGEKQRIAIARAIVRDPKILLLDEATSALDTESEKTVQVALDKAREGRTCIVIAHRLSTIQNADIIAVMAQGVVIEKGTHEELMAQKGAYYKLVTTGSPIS

Regarding `CC#C[C@@H](CC(=O)O)c1ccc(OCC(C)=C(C)C)cc1` [CPL207280], the “ALT and AST levels vs vehicle-treated ZDF group” value in series [1] was “failed to alter the ALT and AST levels”. In addition, the liver safety parameters entry in [2] (50–250 mg/kg/day, 14 and 56 days) is given as “No alteration of liver safety parameters”. Besides, the “hepatocyte hypertrophy and liver mass” value in series [2] (after the 14 and 56-day treatment) is “neither hypertrophy nor increased liver mass was observed”. Moreover, in [3], the “rat % of parent at 120 min” value was determined as 57.6%. In addition, the “Compound Remaining (% of 0 min)” value in series [4] (0 min) was 100 % of 0 min; in series [4] (10 min), 101 % of 0 min and 81.5 % of 0 min; in [4] (20 min), 79.0 % of 0 min and 77.8 % of 0 min; in series [4] (40 min), 77.7 % of 0 min and 66.7 % of 0 min; in series [4] (60 min), 72.8 % of 0 min and 73.3 % of 0 min; in series [4] (120 min) it was 65.3 % of 0 min and 56.0 % of 0 min. Moreover, the “Compound Remaining (% of 0 min)” value in series [7] (0 min) is 100 % of 0 min; in [7] (10 min), 65.3 % of 0 min and 63.2 % of 0 min; in series [7] (20 min) it was 38.4 % of 0 min and 39.7 % of 0 min; in [7] (40 min), 17.5 % of 0 min and 19.5 % of 0 min; in [7] (60 min), 8.86 % of 0 min and 11.4 % of 0 min; in series [7] (120 min), 8.94 % of 0 min and 8.99 % of 0 min. Further, the “Compound Remaining (% of 0 min)” value in [8] (0 min) was 100 % of 0 min; in series [8] (10 min), 92.6 % of 0 min and 92.7 % of 0 min; in series [8] (20 min) it was 92.0 % of 0 min and 89.0 % of 0 min; in series [8] (40 min), 86.8 % of 0 min and 80.9 % of 0 min; in series [8] (60 min), 79.1 % of 0 min and 85.2 % of 0 min; in [8] (120 min), 81.9 % of 0 min and 77.1 % of 0 min. The results for the half-life at 3 μM in series [4] (setting [14]), in [7] (setting [15]) and in [8] (setting [16]) were 3.1 h, 0.283 h and 6.73 h, respectively. Also, the microsomal CLint at 3 μM in [4] (setting [14]) was found to be 7.51 µL/min/mg; in series [7] (setting [15]), 81.4 µL/min/mg; in series [8] (setting [16]), 3.46 µL/min/mg. Moreover, at BSEP [5], the concentration for half-maximal inhibition (IC50) was greater than 100 µM. For the same compound, the “liver safety markers (ALT, AST) vs vehicle group” value in series [6] is “none of the doses altered liver safety markers”.

In the case of `Cc1cc(OCCCS(C)(=O)=O)cc(C)c1-c1cccc(COc2ccc3c(c2)OC[C@H]3CC(=O)O)c1` [TAK-875, fasiglifam, reference compound], the “Acyl glucuronide presence in human hepatocytes” value in series [9] is “Yes”. In series [10], the “effect on ALT, TBA, T-BIL in dogs” value is listed as “observed in only 2 of 6 animals”. Moreover, the IC50 was 68 µM in the series with hepatocytes (time of incubation 24 h), 56 µM with hepatocytes (time of incubation 48 h) and 47.3 µM against BSEP [13]. Further, the “study participants with serum ALT elevations > 3 × ULN” value in series [11] was 2.7%. In addition, the “long exposure in humans” value in series [12] is given as “approximately 30 h”.

One may read the half-life as how long it takes for the measured level to halve. The microsomal CLint is a measure of how fast metabolising enzymes remove a compound, apart from limits set by blood flow. In general, IC50 refers to the point on the concentration scale where inhibition reaches its midpoint.

Source of the values: PMC8459971, “Evaluation of the hepatotoxicity of the novel GPR40 (FFAR1) agonist CPL207280 in the rat and monkey” (PLoS ONE, 2021).
